Reference: patent US6310051A, “Use of chelating agents in the treatment of atherosclerotic conditions” (Nycomed Imaging AS, priority 1997, dated 2001)

Key:
human LDL = assay: Copper-catalyzed oxidation of human LDL in vitro, increase in absorbance at 234 nm (diene-products); type: biochemical; settings: 5 μM CuCl2, 30° C., PBS; for inhibition of LDL oxidation, concentration dependence: absorbance at 234 nm over 225 minutes; for inhibition of LDL oxidation at 5 μM: 5 μM compound; for inhibition of LDL oxidation at 5 μM / inhibition of LDL oxidation at 10 μM: 234 nm; for inhibition of LDL oxidation at 10 μM: 10 μM compound
Experimental: Copper-catalyzed LDL-oxidation was monitored by following the increase in absorbance at wavelength 234 nm over time (representing increase in diene-products).
Human LDL (1.025<d<1.050 g/ml) was freshly isolated (from sera of normolipidemic donors who had fasted overnight) by sequential ultracentrifugation, in the presence of EDTA (1.4 mg/ml) to inihibit lipid peroxidation. LDL was finally dialyzed under nitrogen against 10 mM phosphate buffer with 160 mM NaCl, pH 7.4 (PBS), for 24 h at 4° C.
Assays were performed at 30° C. in PBS by mixing 200 μl of the LDL-containing dialysate to PBS to a final volume of 2000 μl. The LDL-oxidation was started by adding 5 μM CuCl2 and the changes in absorbance at wavelength 234 nm was followed over 225 minutes.

[1] = Plasma metallo-PLED by HPLC after oral (intragastric) administration to rats; type: in vivo; settings: rat, 100 μmol/kg MnPLED into the stomach, 5 minutes after administration
Experimental: In order to get a rough estimate of the bioavailability of MnPLED after oral administration, rats were instilled with MnPLED into the stomach and the plasma concentrations of metallo-PLED was determined at various times after administration.
100 μmol/kg MnPLED was instilled into the stomach. Blood (ca 4.5 ml) was withdrawn by cardiac puncture (under CO2 -anaesthesia) and collected in tubes containing heparin (trace metal analysis tubes), 5, 30, 60, 120 minutes and 24 hours after oral administration (2 rats for each time point). Plasma was prepared by centrifugation and ultrafiltration and metallo-PLED was determined by HPLC as described by Toft et al. 1997 (Acta Radiologica 38: 677-689).

Substance	inhibition of LDL oxidation, concentration dependence (human LDL)	inhibition of LDL oxidation at 5 μM (human LDL)	inhibition of LDL oxidation at 10 μM (human LDL)	presence of MnPLED in plasma ([1]; one animal)	transmetallation of MnPLED into ZnPLED ([1]; plasma)
MnDPDP	inhibited LDL oxidation in a concentration-dependent manner	more than 50%	almost complete inhibition		
dihydrogen [N,N'-ethylenebis [N-[[3-hydroxy-5-(hydroxymethyl)-2-methyl-4-pyridyl]methyl] glycinato] (4-)] manganate(2-) [MnPLED]	inhibited LDL oxidation in a concentration-dependent manner	more than 50%	almost complete inhibition	may indicate the presence of small amounts of MnPLED in plasma	most of the MnPLED has already been transmetallated into ZnPLED
